Assay results published in paper PMC4515242, “ESR and X-ray Structure Investigations on the Binding and Mechanism of Inhibition of the Native State of Myeloperoxidase with Low Molecular Weight Fragments” (Applied Magnetic Resonance, 2015).

Legend:
Human Myeloperoxidase = target: T1, Human Myeloperoxidase (Homo sapiens, UniProt P05164); experiment: X-ray co-crystal growth by soaking MPO crystals with inhibitor; settings: crystals soaked with 50 mM inhibitor
T1 construct: purchased Lee Biosciences 426-10
T1 sequence (P05164 49-745): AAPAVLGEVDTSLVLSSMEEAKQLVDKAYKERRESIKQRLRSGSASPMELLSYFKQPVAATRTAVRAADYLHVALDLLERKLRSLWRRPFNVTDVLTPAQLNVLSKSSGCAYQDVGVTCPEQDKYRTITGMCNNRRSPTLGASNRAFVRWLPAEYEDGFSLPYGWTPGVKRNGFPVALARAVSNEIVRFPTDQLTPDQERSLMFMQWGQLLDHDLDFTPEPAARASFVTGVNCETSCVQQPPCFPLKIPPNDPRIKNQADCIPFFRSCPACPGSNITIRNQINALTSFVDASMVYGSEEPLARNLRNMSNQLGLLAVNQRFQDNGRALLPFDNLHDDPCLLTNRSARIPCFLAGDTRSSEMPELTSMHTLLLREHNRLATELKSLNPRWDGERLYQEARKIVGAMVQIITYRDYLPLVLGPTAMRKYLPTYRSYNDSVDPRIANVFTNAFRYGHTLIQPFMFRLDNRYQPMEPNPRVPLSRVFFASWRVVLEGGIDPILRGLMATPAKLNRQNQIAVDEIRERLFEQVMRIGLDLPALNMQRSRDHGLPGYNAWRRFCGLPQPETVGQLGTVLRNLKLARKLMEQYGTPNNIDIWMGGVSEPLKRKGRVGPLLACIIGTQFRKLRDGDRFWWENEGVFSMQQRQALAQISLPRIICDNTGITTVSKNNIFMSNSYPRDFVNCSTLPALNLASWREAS
Protocol: Human Myeloperoxidase and co-crystals of MPO were crystallized and analyzed using methods similar to those described by Davey and Fenna. Briefly, hanging drops of 25 mg/mL MPO, 25 mM sodium acetate pH 5.0, 50 mM NaCl, 50 mM ammonium sulfate, 2 mM calcium chloride, and 3-10 % polyethylene glycol 8000 were set up at 21 °C over reservoir solutions containing 300 mM sodium chloride. Crystals of the space group P21 and having two MPO subunits per asymmetric unit grew with the aid of micro-seeding as very thin plates having a brownish orange tinge. Crystals were soaked with inhibitor compounds at a concentration of 50 mM, in a stabilizing buffer containing 18 % polyethylene glycol 8000, 56 mM ammonium sulfate, 2.2 mM calcium acetate, and 56 mM HEPES pH 7.0. Co-crystals were cryo-protected in a stabilizing buffer containing 22.2 % methylpentanediol prior to flash cooling in liquid nitrogen.
Diffraction data were collected at 100 K using Synchrotron beam line 31ID at the Advanced Photon Source (Argonne National Laboratory) and were integrated using MOSFLM v.6.2.6 [18]. […] Inhibitor binding to the MPO heme group was indicated by appropriately shaped peaks in the Fo–Fc electron density maps. The inhibitor was included in the model, and iterative cycles of manual model building with COOT [20] and restrained refinement with REFMAC v5.2.0019 [21] were used to complete the overall structure. Figures of the crystal structure were generated using PYMOL (www.pymol.org). […] The higher B-factors for the inhibitor molecules could be attributed to inhibitor occupancies of less than 1.0 or to higher degrees of thermal motion associated with the inhibitors. Lower than expected electron density peak heights were also observed for the Cl atom in the inhibitors, which could be due to the radiation damage to this X-Ray sensitive group.

[1] = target: T2, native state (Fe3+) of hMPO (Homo sapiens, UniProt P05164); experiment: Low temperature ESR binding assay (binding-induced g shift, Rrelative); settings: for ESR Rrelative: Rrelative = (Rbound - Rnative)/Rnative x 100, inhibitor:MPO 40:1, pH 6, 6 % DMSO, 4-7 K; for Δg: absolute difference between g X and g Y of the bound complex; for ESR Binding: class by Rrelative, inhibitor:MPO 40:1; for g X / g Y: electronic g value of the bound complex, X-band ESR, 5 K
T2 construct: purchased Athens Research and Technology
T2 sequence (P05164 49-745): T1 sequence (P05164 49-745)
Protocol: After 5-min. incubation at room temperature, the entire reaction mixture (0.235 mL) was transferred to the ESR quartz tubes. To avoid the quartz tubes breaking during the rapid freezing cycles, the ESR tubes were initially frozen in a 1:1 Isopentane-Cyclohexane mixture cooled with dry ice powder and then transferred to a liquid nitrogen Dewar to be queued up for ESR measurements. The reaction mixture contained a final concentration of 6 % DMSO. ESR spectra were recorded on a Varian E-12, X-band spectrometer equipped with an Air Products liquid helium cryostat.
The experimental g values correspond to the spin Hamiltonian pertinent to the high-spin ion (S = 5/2).1 H=DSZ2-1/3SS+1+E/DSX2-SY2+βgeS.Be where D and E are the eigen values of the axial and rhombic field components, i.e., the symmetry of the ligand (inhibitors approaching heme in this case). […] When the heme lodges inside the protein, the protein side chain amino acid (histidine) approaches the heme vicinity and either binds (axially) directly to the iron in the heme pocket. […] Thus, the fifth ligand leads to lower (rhombic) symmetries causing the signal at g ~ 6 to split. This non-tetragonal splitting of the heme is quantitated by the relationship,2 E/D=Δg/48 where ∆g represents the absolute difference between the gX and gY components. Alternatively, making use of the fact that E/D maximum value = 1/3, one can simplify the above expression as a percentage of rhombicity, R:3 R=Δg/16×100%. […] To rank-order molecules in terms of their ability to distort the heme pocket/plane environment, we used a ratio of total distortion in the bound complex w.r.t. distortion seen in the native unbound enzyme:4 Rrelative=Rbound-Rnative/Rnative×100.
From the relative rhombicities of the bound and unbound complex, a measure of the strength of binding could be derived. […] For the ease of classification, we have empirically defined those with 5 ≤ Rrelative ≥ 2 as weak binding; 15 ≥ Rrelative ≥ 10 as moderate binding; and 25 ≥ Rrelative ≥ 15 as strong binding (Table 2).

hMPO = target: T3, hMPO (Homo sapiens, UniProt P05164); experiment: Peroxidase inhibition assay: ESR of hMPO exposed to H2O2 with and without inhibitor; type: biochemical; settings: inhibitor added before H2O2 (555 μM); inhibitor:MPO 40:1, in DMSO
T3 construct: purchased Biodesign A31804H
T3 sequence (P05164 49-745): T1 sequence (P05164 49-745)
Protocol: Hydrogen peroxide (30 %, v/v; 9.71 M) is used with different dilutions in ice-cold deionized water. MPO at 50 μl of 20.8 μM (4.6 μM final concentration) is incubated with different concentrations of H2O2 in the absence and in the presence of inhibitors (inhibitor to MPO concentration is 40:1) for 1 min and rapidly frozen at 77 K. The inhibitors are added to MPO, incubated for 5 min prior to H2O2 addition in these reactions.

[2] = ESR, Inhibitor:MPO ratio 40:1, DMSO 6 %

Compound	X ray Cocrystal result (Human Myeloperoxidase)	proportion of the enzyme bound [1, 2] [%]	proportion of the enzyme unbound [1, 2] [%]	ESR Rrelative [1]	Δg [1]	ESR Binding [1]	g X [1]	g Y [1]	prevention of peroxide-induced ESR changes (decay of g X and g Y, growth of g ~ 6) (hMPO)
O=C(O)c1nn(-c2ccccc2)cc1O [LSN17948]	Yes	70	30	24.2	2.256	Strong (25 ≥ Rrelative ≥ 15 as strong binding)	6.995	4.739	The spectrum is unchanged and no g intermediate signal is seen
O=C(O)c1n[nH]c(-c2ccccc2)c1O [LSN87637]	Yes	–	–	14.1	2.09	Moderate (15 ≥ Rrelative ≥ 10 as moderate binding)	6.917	4.827	–
O=C(O)c1nn(-c2cccc3ccccc23)cc1O [LSN2944556]	Yes	–	–	29.1	2.308	Strong (25 ≥ Rrelative ≥ 15 as strong binding)	7.0681	4.7601	–
